In patent EP0603240B1, “SAFENING HERBICIDAL PYRAZOLYLSULFONYLUREAS” (priority 1991, dated 1993):

Legend:
Assay type in all cases: in vivo
corn [1] = test: Example 9, Procedure II: Herbicide No. 1 + pretilachlor (No. 13) with antidotes
Protocol: (§1) Containers were filled and compacted with a fumigated silt loam top soil to a depth of about 1.3 cm from the top of the container. A first container was designated as an untreated control, a second container was designated as a herbicide control, and a third container was designated as a herbicide + antidote test container. Each of the containers was seeded with a crop species. A measured amount of herbicide dispersed or dissolved in acetone was applied to a measured quantity of soil. To this same quantity of soil treated with herbicide, there was added a measured amount of antidote dispersed or dissolved in acetone. The quantity of soil treated with the herbicide and antidote was thoroughly mixed to incorporate the herbicide and antidote in the soil uniformly. The seed bed in the third container of soil was covered with the soil treated with the herbicide and antidote and the container was leveled. For each test series, the seed beds of the first and second containers were likewise covered by soil layers. the cover layer of the first container was not treated with herbicide or antidote.
(§2) The containers were then placed on a bench in a greenhouse and sub-irrigated as required for the duration of the test. […] Plant response is measured in terms of percent injury. Antidote efficacy is indicated as the difference in plant injury by the herbicide(s) without the antidote and with the antidote.
(§3) This procedure is the same as Procedure I, but modified in the manner that after incorporation of the chemicals (herbicide and antidote) the containers with the covered seedbed were treated with an initial overhead irrigation equivalent to 0.6 cm rainfall, then subsequently sub-irrigated as required on greenhouse benches.
In this example the safening effect on a composition comprising Herbicide No. 1 and another leading rice herbicide, i.e., Herbicide No. 13, was investigated using the same antidotes and test procedure described in the preceding example. Herbicide No. 13 is pretilachlor, active ingredient used in the commercial rice herbicides RIFIT®, SOFIT® and SOFIT® SUPER.

[2] = system: barnyardgrass (Echinochloa crusgalli); test: Example 6, Procedure II: Herbicide No. 1 + alachlor (No. 7) with antidotes
Protocol: as §1, §2, §3
(§4) In the series of greenhouse tests described below, for routine screening purposes the herbicide/antidote compositions were tested in crop/weed combinations involving corn as the crop and either or both of the weeds barnyardgrass (Echinochloa crusgalli), a monocotyledonous weed, and velvetleaf (Abutilon theophrasti), a dicotyledonous weed. In the tables below, these weeds are indicated by the symbols "BYG" and "VL", respectively.
(§5) This example was designed to investigate the antidotal efficacy of a plurality of antidotal compounds against a composition comprising Herbicide No. 1 in combination with Herbicide No. 7 (alachlor). The antidotal compounds used herein were Nos. 1, 2, 7, 13 and 15.
(§6) In this example, Procedure II described above was followed. The data from the tests in this example is shown in Table 6 and represents averages of duplicate replications.

[3] = system: velvetleaf (Abutilon theophrasti); test: as above
Protocol: as §1, §2, §3, §4, §5, §6

corn [4] = test: Example 7, Procedure II: Herbicide No. 1 + metolachlor (No. 12) with antidotes
Protocol: as §1, §2, §3, §6
The tests in this example followed the same procedure and antidotes used in Example 6. However, Herbicide No. 12 (metolachlor) was used as the co-herbicide with Herbicide No. 1.

[5] = system: velvetleaf (Abutilon theophrasti); test: Example 11, Procedure II: Herbicide No. 1 + metazachlor (No. 14) with antidotes; conditions: no antidote
corn [6] = test: Example 18, Procedure II: Herbicide No. 1 + ERADICANE (EPTC + R-25788) with auxiliary antidotes
Protocol: as §1, §2, §3
(§7) In the test reported in this example, the herbicidal composition was similar to that used in Example 16 in that Herbicide No. 1 was combined with EPTC (Herbicide No. 4) as a co-herbicide and the antidotes included Nos. 1, 2, 7, 13 and 15. However, in this test the EPTC was introduced as a formulation of ERADICANE (EPTC + the antidote R-25788, i.e., Antidote No. 1) at an application rate of 8.96 kg/ha. Thus, in this test two antidotes were present, viz. R-25788 and one of the auxilliary antidotes, No. 2, 13 and 15.
Test procedures were those of Procedure II above.

[7] = system: barnyardgrass (Echinochloa crusgalli); test: Example 19, Procedure II: Herbicide No. 1 + ERADICANE EXTRA with added antidotes
Protocol: as §1, §2, §3, §4, §7
(§8) The test reported in this example was performed in the same manner and with the same antidotes used in Example 18, the only difference being the substitution of the commercial herbicidal product ERADICANE® EXTRA for ERADICANE®. ERADICANE EXTRA is a formulation containing both an antidote, i.e., R-29148 (Antidote No. 5 herein), and an extender, dietholate.

[8] = system: velvetleaf (Abutilon theophrasti); test: as above
Protocol: as §1, §2, §3, §4, §7, §8

[9] = Herbicide No.1 0.14 + No.7 4.48 kg/ha, no antidote
[10] = Herbicide No.1 0.14 kg/ha alone
[11] = Herbicide No.1 0.56 + No.7 (alachlor) 4.48 kg/ha, no antidote, average of duplicates
[12] = Herbicide No.1 0.56 kg/ha alone
[13] = Herbicide No.1 1.12 kg/ha alone
[14] = Herbicide No.1 0.56 kg/ha + ERADICANE EXTRA 8.96 kg/ha, no added antidote
[15] = Herbicide No.1 1.12 kg/ha + ERADICANE EXTRA 8.96 kg/ha, no added antidote

## CC1(C)OC(c2ccco2)CN1C(=O)C(Cl)Cl (stereo not shown) [Antidote No. 15, Oxazolidine, 3-(dichloroacetyl)-5-(2-furanyl)-2,2-dimethyl]
Corn [1]; Herbicide Nos. 1 and 13, Table 9
  safening of corn, assessment in words: commercial-level safening of corn

## COC(=O)c1c(Cl)nn(C)c1S(=O)(=O)NC(=O)Nc1nc(OC)cc(OC)n1 [Herbicide No. 1]
[2]; [9]
  % Injury BYG: 100%
[2]; [10]
  % Injury BYG: 20%
[2]; [11]
  % Injury BYG: 100%
[2]; [12]
  % Injury BYG: 70%
[3]; [9]
  % Injury VL: 70%
[3]; [10]
  % Injury VL: 40%
[3]; [11]
  % Injury VL: 85%
[3]; [12]
  % Injury VL: 60%
Corn [4]; Herbicide No.1 0.14 + No.12 3.36 kg/ha, no antidote
  % Injury Corn: 20%
Corn [4]; Herbicide No.1 0.14 + No.12 3.36 kg/ha, no antidote (second such line, r25)
  % Injury Corn: 0%
Corn [4]; Herbicide No.1 0.56 + No.12 3.36 kg/ha, no antidote (second such line, r24)
  % Injury Corn: 10%
Corn [4]; Herbicide No.1 0.56 + No.12 (metolachlor) 3.36 kg/ha, no antidote
  % Injury Corn: 30%
Corn [1]; Herbicide No. 1 0.56 kg/ha + Herbicide No. 13 2.24 kg/ha in combination, no antidote
  injury to corn: 65%
[5]; [12]
  % Injury VL: 75%
[5]; [13]
  % Injury VL: 80%

## COC(=O)c1c(Cl)nn(C)c1S(=O)(=O)NC(=O)Nc1nc(OC)cc(OC)n1 [No.1]
Corn [6]; Herbicide No.1 0.56 kg/ha + ERADICANE 8.96 kg/ha, no added antidote
  % Injury Corn: 25%
Corn [6]; [12]
  % Injury Corn: 30%
Corn [6]; Herbicide No.1 1.12 kg/ha + ERADICANE 8.96 kg/ha, no added antidote
  % Injury Corn: 20%
Corn [6]; [13]
  % Injury Corn: 25%
[7]; [14]
  % Injury BYG: 95%
[7]; [12]
  % Injury BYG: 30%
[7]; [15]
  % Injury BYG: 95%
[7]; [13]
  % Injury BYG: 70%
[8]; [14]
  % Injury VL: 80%
[8]; [12]
  % Injury VL: 50%
[8]; [15]
  % Injury VL: 85%
[8]; [13]
  % Injury VL: 65%
